According to ChEMBL document CHEMBL1152505, “Enaminones 10. Molecular modeling aspects of the 5-methylcyclohexenone derivatives” (Bioorg Med Chem, 2009):

Experiments:
Mus musculus [1] = organism: Mus musculus; assay: Anticonvulsant activity in mouse assessed as inhibition of maximal electroshock-induced seizures; type: functional
[2] = Toxicity in mouse; type: organism-based; settings: in vivo
Mus musculus [3] = organism: Mus musculus; assay: Protective index, ratio of TD50 for mouse to ED50 for maximal electroshock-induced mouse seizure model; type: functional
Mus musculus [4] = organism: Mus musculus; assay: Anticonvulsant activity against maximal electroshock-induced seizures in mouse assessed as time to peak effect; type: functional
Rattus norvegicus [5] = organism: Rattus norvegicus; assay: Anticonvulsant activity in rat assessed as inhibition of maximal electroshock-induced seizures; type: functional
[6] = Toxicity in rat; type: organism-based; settings: in vivo
Rattus norvegicus [7] = organism: Rattus norvegicus; assay: Protective index, ratio of TD50 for rat to ED50 for maximal electroshock-induced rat seizure model; type: functional
Rattus norvegicus [8] = organism: Rattus norvegicus; assay: Anticonvulsant activity against maximal electroshock-induced seizures in rat assessed as time to peak effect; type: functional

Structure (SMILES)	ED50 (Mus musculus [1]) [mg/kg]	TD50 [2] [mg/kg]	PI (Mus musculus [3])	Time (Mus musculus [4]) [h]	ED50 (Rattus norvegicus [5]) [mg/kg]	TD50 [6] [mg/kg]	PI (Rattus norvegicus [7])	Time (Rattus norvegicus [8]) [h]
CC1CC(=O)C=C(Nc2ccc(Cl)cc2)C1 (stereo unspecified)	16.7	111	6.6	0.25	14.7	> 186	>83.3	1
CC1CC(=O)C=C(Nc2ccc(Br)cc2)C1 (stereo unspecified)	–	–	–	–	7.6	> 500	>65.8	0.5
CC1CC(=O)C=C(Nc2ccc([N+](=O)[O-])cc2)C1 (stereo unspecified)	–	–	–	–	18.4	> 500	>27.4	4
COc1cccc(NC2=CC(=O)CC(C)C2)c1 (stereo unspecified)	–	–	–	–	39.4	> 500	>12.7	0.5
CC1CC(=O)C=C(Nc2ccc(OC(F)(F)F)cc2)C1 (stereo unspecified)	–	–	–	–	6.5	> 400	>62	0.5
CC1CC(=O)C=C(Nc2ccc(I)cc2)C1 (stereo unspecified)	77	344	4.5	0.25	17.6	> 500	>28.3	2
CC1CC(=O)C=C(Nc2ccc(C(F)(F)F)cc2)C1 (stereo unspecified)	–	–	–	–	10.3	> 500	>48.4	1
